According to US7659299B2, “Compounds inhibiting the binding of sap for treating osteoarthritis” (Pentraxin Therapeutics Limited, priority 2003, dated 2010):

Molecular target: SAP (Homo sapiens, UniProt P02743)
Test: Treatment of patients with osteoarthritis: plasma SAP concentration and joint symptoms
Assay type: in vivo
Parameters: 5 μl of radiolabelled SAP in TN; from tissue
Conditions: patient
Source text: 1) The patient, a person retired General Practitioner living in New Zealand, has a long history of bone and joint injuries, starting as a child on a farm and continuing as a teenager and then adult playing rugby and skiing. They have suffered from pain and swelling of previously damaged joints following manual work and especially in cold weather. The proximal interphalangeal joints of the left middle and right fourth fingers, the right elbow and the mid-thoracic intervertebral joints have been most affected. Symptoms and signs have progressively worsened over the past 22 years, so that their capacity for physical work had become very restricted and during winter they have required frequent or continuous treatment with non-steroidal anti-inflammatory drugs. These are all typical manifestations of osteoarthritis. In 2000 the discovery of impaired renal function led eventually to a second, and completely separate diagnosis of hereditary systemic amyloidosis caused by a mutation in the gene for fibrinogen A α-chain.
They started experimental treatment for their amyloidosis on 9 Oct. 2001 with (R)-1-[6-[(R)-2-Carboxy-pyrrolidin-1-yl]-6-oxo-hexanoyl]pyrrolidine-2-carboxylic acid, 10 mg b.d. by subcutaneous injection. […] This improvement was sustained and increased so that by April 2002, the autumn in New Zealand, it was impressively beyond doubt. Throughout that winter, for the first time in many years, […] no longer required treatment with non-steroidal anti-inflammatory drugs, despite increased physical activity. […] Over the past few months they have been doing regular hard physical work on the land, fencing and landscaping, including lifting and carrying significant weights, without suffering any of the pain and swelling that previously severely affected them even without the stress of unusual physical activity.
Their shoulders were painful, particularly when reaching up or behind their head, making drying their hair and some household tasks painful and difficult. […] They also experienced pain in their right wrist when performing some tasks, particularly opening jars, a manoeuvre that they found difficult. These symptoms are all compatible with osteoarthritis.
CD has hereditary systemic amyloidosis caused by a mutation in the gene for apolipoprotein AI, diagnosed in October 2001 during investigation of chronic renal impairment. […] They started experimental treatment for their amyloidosis on 22 Oct. 2001 with (R)-1-[6-[(R)-2-Carboxy-pyrrolidin-1-yl]-6-oxo-hexanoyl]pyrrolidine-2-carboxylic acid, 15 mg b.d. by subcutaneous injection. […] Treatment with (R)-1-[6-[(R)-2-Carboxy-pyrrolidin-1-yl]-6-oxo-hexanoyl]pyrrolidine-2-carboxylic acid finished in October 2002 and their remarkable remission has continued to the present (June 2003).

Chain of SAP (P02743 20-223): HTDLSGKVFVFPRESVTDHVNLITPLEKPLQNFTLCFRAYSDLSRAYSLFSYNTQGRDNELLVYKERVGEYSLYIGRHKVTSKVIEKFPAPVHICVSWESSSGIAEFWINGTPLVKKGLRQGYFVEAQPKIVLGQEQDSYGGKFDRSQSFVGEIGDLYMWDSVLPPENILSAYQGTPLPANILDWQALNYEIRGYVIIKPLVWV

Question: With `O=C(O)[C@H]1CCCN1C(=O)CCCCC(=O)N1CCC[C@@H]1C(=O)O` [Ro-63-8695, (R)-1-[6-[(R)-2-Carboxy-pyrrolidin-1-yl]-6-oxo-hexanoyl]pyrrolidine-2-carboxylic acid] as the molecule, how does the “plasma SAP concentration reduced by” value (10 mg b.d. subcutaneous injection, after three months) read?
Answer: over 95%

Question: What about the symptoms of osteoarthritis (10 mg b.d. subcutaneous injection, treatment Oct. 2001 to June 2003) of the same molecule?
Answer: remained in remission

Question: What about the “plasma SAP concentration reduced by” value (15 mg b.d. subcutaneous injection, after two months) of the same molecule?
Answer: over 95%

Question: What about the “joint pain and function” value (15 mg b.d. subcutaneous injection, by January 2002 (start 22 Oct. 2001)) of the same molecule?
Answer: free of pain and had normal function of their joints
